# Test results from article PMC12751141, “Disrupting α-Synuclein–ClpP interaction restores mitochondrial function and attenuates neuropathology in Parkinson’s disease models” (Molecular Neurodegeneration, 2025).
# Legend:
# ClpP = system: ClpP
# Experimental: ClpP peptidase activity in vitro was measured as previously described (REF). Briefly, human recombinant ClpP (10 µM, obtained from Dr. Aaron Schimmer, Princes Margartet Cancer Centre, Canada) were incubated in the reaction buffer (50mM Tris PH 8.0, 200mM KCl, 1mM DTT, 2mM ATP) under 37 °C for 10 min. For co-incubation with αSyn, recombinant ClpP and WT or C-terminal truncated or NAC-domain truncated recombinant αSyn (S-1001-1, S-1012-1, S-1015-1, rPeptide) were pre-incubated for 30 min under room temperature. Fluorescent substrate of ClpP, ac-WLA-AMC (50 µM), were then added in the reaction buffer. The fluorescence signal was read using TECAN infinite M1000 up for 30 min at excitation/emission wavelength 345/445. ClpP peptidase activity were determined as the slope of the regression line.
# (C) In vitro ClpP peptidase activity was measured in presence of TAT or CS2 peptide (50/100 µM). The fluorescence intensity of ac-WLA-AMC (50 µM), a fluorogenic substrate of ClpP, was measured (0-30 min). Quantification of ClpP activity (n = 5, one-way ANOVA with Tukey’s post-hoc test; data are mean ± SEM).
# ClpP (HEK293T cells) = assay: ClpP protein level, western blot, HEK293T cells; format: cell-based; conditions: WT or A53T αSyn overexpression; 30 min pretreatment; n = 4–5 (CS1: n = 4)
# αSyn monomer = αSyn monomer ELISA, Tet-inducible αSyn SH-SY5Y cells; format: cell-based, human; conditions: vs TAT
# Experimental: After one day incubation with doxycycline (1µM), αSyn tet-on inducible expression SHSY5Y cells were treated with TAT or CS2 peptides at 10 µM for another two days. The level of αSyn monomer released into culture medium was measured using LEGEND MAX human αSyn ELISA kit (448607, Biolegend). The level of extracellular and intracellular αSyn oligomers was measured using human alpha synuclein oligomer ELISA kit (MBS730762, Mybioresource).
# SH-SY5Y cells = assay: Cellular ATP in SH-SY5Y cells; format: cell-based
# Experimental: Cells were seeded in 24-well plates, followed by the indicated treatment. The ATP level in each well was determined using the ATP assay kit according to the manufacturer’s procedures (Cayman Chemical, 700410).
# ClpP–αSyn interaction = assay: ClpP–αSyn proximity ligation assay in iPSC-derived neurons; format: cell-based, human; conditions: A53T-αSyn neurons; 1 µM, five days; n = 20 images per group
# Text: PD iPS cells lines (αSyn A53T, NN0004337, donor) and its isogenic corrected control line (NN0004344) were obtained from RUCDR Infinite Biologics. The iPS cells were differentiated into dopaminergic neuron-enriched neuronal culture with the protocol described previously. Briefly, iPS cell colonies were disassociated with accutase (Invitrogen), plated onto 6-well plates pre-coated with 2.5% Matrigel (BD Biosciences) and allowed to reach 80% confluence in mTeSR medium (Stem Cell Technology). For the first 10 days, cells were treated with SB431542 (10 µM; Tocris Bioscience) and Noggin (100 ng/ml) in Neural Media (NM) with FGF2 ([…]) and EGF ([…]). NM media contained: Neurobasal and DMEM/F12 (1:1), B-27 Supplement Minus Vitamin A (50×, Invitrogen), N2 Supplement (100X, Invitrogen), GlutaMAX (Invitrogen, 100×), 100 units/ml penicillin and 100 µg/ml streptomycin (Fisher); for the next 4 days, cells were treated with human recombinant Sonic hedgehog (SHH, 200 ng/ml) in neuronal differentiation medium. Neuronal differentiation medium contained Neurobasal and DMEM/F12 (1:3), B27, N2, GlutaMax and PS. […]
# Proximity ligation assay (PLA) was performed using the Duolink® In Situ Starter Kit with Detection Reagents Green (mouse/rabbit; DUO92101, DUO92014). […] PLA puncta were detected as distinct fluorescent spots and imaged by confocal microscopy (Fluoview FV3000; Olympus). […]
smiles,measurement,setting,value
"CC(C)[C@H](NC(=O)CNC(=O)CNC(=O)CCCCCNC(=O)[C@H](CCCNC(=N)N)NC(=O)[C@H](CCCNC(=N)N)NC(=O)[C@H](CCCNC(=N)N)NC(=O)[C@H](CCC(N)=O)NC(=O)[C@H](CCCNC(=N)N)NC(=O)[C@H](CCCNC(=N)N)NC(=O)[C@H](CCCCN)NC(=O)[C@H](CCCCN)NC(=O)[C@H](CCCNC(=N)N)NC(=O)CNC(=O)[C@@H](N)Cc1ccc(O)cc1)C(=O)N[C@H](C(=O)N[C@H](C(=O)N[C@@H](C)C(=O)O)[C@@H](C)O)C(C)C [CS2, TAT-C6-GGVVTA]","ClpP peptidase activity restoration, WT αSyn",ClpP,restored ClpP peptidase activity
same,"ClpP peptidase activity, peptide alone",ClpP,neither TAT nor CS2 alone impaired ClpP activity
same,"ClpP peptidase activity restoration, A53T αSyn","ClpP; inhibition by A53T mutant αSyn, ac-WLA-AMC 50 µM, 0–30 min, representative of 4 experiments",restored ClpP peptidase activity
same,"ClpP protein level, HEK293T",ClpP (HEK293T cells),significantly restored ClpP protein levels
same,extracellular αSyn monomer,"αSyn monomer; 10 µM, two days, ELISA, n = 4",decreased levels
same,intracellular αSyn monomer,αSyn monomer,decreased levels
same,"ATP content, αSyn-expressing cells","SH-SY5Y cells; SH-SY5Y expressing WT- or A53T-αSyn, n = 6",rescued upon CS2 treatment
same,"ATP production, healthy cells","SH-SY5Y cells; healthy SH-SY5Y, n = 4",did not affect cell viability nor ATP production
same,ClpP–αSyn interaction by PLA,ClpP–αSyn interaction,markedly reduced the ClpP–αSyn interaction
